Where “and” joins values, the source holds several entries; their conditions need not be identical. Equal values may be shown once.
System: VA-ES-BJ tumor spheroid viability
Test: Anticancer human tumor VA-ES-BJ cell line growth inhibition;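 note: spheroids exposed to compounds for seven days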;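 for viability, T/C: percent of DMSO vehicle control viability so 100% = untreated growth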
Details: spheroids with HUVEC and MSC; for viability, T/C: stronger effect = lower value
Summary of the method: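 Complex spheroids of malignant cells with endothelial cells and mesenchymal stem cells; agents alone or combined, from near clinical Cmax (or 10 microM if unknown) down in half-log steps, 0.25% DMSO final.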

[1] = curve of first compound, second compound 30 pM
[2] = curve of first compound, second compound 94.9 pM
[3] = curve of first compound, second compound 0.0003 µM
[4] = curve of first compound, second compound 0.000949 µM
[5] = curve of first compound, second compound 0.003 µM
[6] = second compound 30 pM, first compound 0.0316 µM
[7] = second compound 30 pM, first compound 0.1 µM
[8] = second compound 30 pM, first compound 0.316 µM
[9] = second compound 30 pM, first compound 1 µM
[10] = second compound 30 pM, first compound 3.16 µM
[11] = second compound 30 pM, first compound 10 µM
[12] = second compound 94.9 pM, first compound 0.0316 µM
[13] = second compound 94.9 pM, first compound 0.1 µM
[14] = second compound 94.9 pM, first compound 0.316 µM
[15] = second compound 94.9 pM, first compound 1 µM
[16] = second compound 94.9 pM, first compound 3.16 µM
[17] = second compound 94.9 pM, first compound 10 µM
[18] = second compound 0.0003 µM, first compound 0.0316 µM
[19] = second compound 0.0003 µM, first compound 0.1 µM
[20] = second compound 0.0003 µM, first compound 0.316 µM
[21] = second compound 0.0003 µM, first compound 1 µM
[22] = second compound 0.0003 µM, first compound 3.16 µM
[23] = second compound 0.0003 µM, first compound 10 µM
[24] = second compound 0.000949 µM, first compound 0.0316 µM
[25] = second compound 0.000949 µM, first compound 0.1 µM
[26] = second compound 0.000949 µM, first compound 0.316 µM
[27] = second compound 0.000949 µM, first compound 1 µM
[28] = second compound 0.000949 µM, first compound 3.16 µM
[29] = second compound 0.000949 µM, first compound 10 µM
[30] = second compound 0.003 µM, first compound 0.0316 µM
[31] = second compound 0.003 µM, first compound 0.1 µM
[32] = second compound 0.003 µM, first compound 0.316 µM
[33] = second compound 0.003 µM, first compound 1 µM
[34] = second compound 0.003 µM, first compound 3.16 µM
[35] = second compound 0.003 µM, first compound 10 µM

SMILES: CNCc1ccc(-c2cc(-c3nc(-c4ccc(S(=O)(=O)C(C)C)cc4)cnc3N)on2)cc1
- viability, T/C (compound 0.00949 µM): 77.7% and 86.1% and 87.9%
- viability, T/C (compound 0.03 µM): 77.8% and 85% and 86.1%
- viability, T/C (compound 0.0949 µM): 76% and 74.3% and 83%
- viability, T/C (compound 0.3 µM): 48.9% and 63.3% and 41%
- viability, T/C (compound 0.949 µM): 9.28% and 11.6% and 7.52%
- viability, T/C (compound 3 µM): 2.21% and 6.18% and 1.41%
- IC50 (curve of compound): 289 nM and 399 nM and 235 nM

SMILES: COc1ccc([C@@H](O)c2cc(-c3ncnc4cc(N5CCOCC5)ccc34)c(F)cc2Cl)nn1 + COc1cc2c(cc1O)CCNC21CSC2c3c(OC(C)=O)c(C)c4c(c3C(COC1=O)N1C(O)C3Cc5cc(C)c(OC)c(O)c5C(C21)N3C)OCO4
- IC50 [1]: 857 nM
- IC50 [2]: 510 nM
- IC50 [3]: 102 nM
- IC50 [4]: < 31.6 nM
- IC50 [5]: < 31.6 nM
- viability, T/C [6]: 124%
- viability, T/C [7]: 112%
- viability, T/C [8]: 90.3%
- viability, T/C [9]: 43.8%
- viability, T/C [10]: 15.9%
- viability, T/C [11]: 10.5%
- viability, T/C [12]: 111%
- viability, T/C [13]: 108%
- viability, T/C [14]: 64.1%
- viability, T/C [15]: 29.1%
- viability, T/C [16]: 15%
- viability, T/C [17]: 11.4%
- viability, T/C [18]: 59.6%
- viability, T/C [19]: 51.3%
- viability, T/C [20]: 30.5%
- viability, T/C [21]: 14%
- viability, T/C [22]: 3.86%
- viability, T/C [23]: 0.36%
- viability, T/C [24]: 3.29%
- viability, T/C [25]: 3.11%
- viability, T/C [26]: 1.76%
- viability, T/C [27]: 0.36%
- viability, T/C [28]: 1.07%
- viability, T/C [29]: 2.57%
- viability, T/C [30]: 2.08%
- viability, T/C [31]: 3.06%
- viability, T/C [32]: 2.71%
- viability, T/C [33]: 4.43%
- viability, T/C [34]: 5.13%
- viability, T/C [35]: 6.09%

SMILES: [2H]c1nc(C)nc([2H])c1-c1cc(NC[C@@H](C)c2cccc3c(C(=O)NC)ccnc23)ncn1 + COc1cc2c(cc1O)CCNC21CSC2c3c(OC(C)=O)c(C)c4c(c3C(COC1=O)N1C(O)C3Cc5cc(C)c(OC)c(O)c5C(C21)N3C)OCO4
- IC50 [1]: > 10000 nM
- IC50 [2]: > 10000 nM
- IC50 [3]: < 31.6 nM
- IC50 [4]: < 31.6 nM
- IC50 [5]: < 31.6 nM
- viability, T/C [6]: 75.6%
- viability, T/C [7]: 78.4%
- viability, T/C [8]: 81.4%
- viability, T/C [9]: 81.9%
- viability, T/C [10]: 85.2%
- viability, T/C [11]: 87.5%
- viability, T/C [12]: 72.9%
- viability, T/C [13]: 74%
- viability, T/C [14]: 83.1%
- viability, T/C [15]: 81%
- viability, T/C [16]: 82.6%
- viability, T/C [17]: 76.8%
- viability, T/C [18]: 46.8%
- viability, T/C [19]: 40.9%
- viability, T/C [20]: 43.9%
- viability, T/C [21]: 42.1%
- viability, T/C [22]: 36%
- viability, T/C [23]: 38.4%
- viability, T/C [24]: 3.46%
- viability, T/C [25]: 1.96%
- viability, T/C [26]: 3.4%
- viability, T/C [27]: 2.92%
- viability, T/C [28]: 2.41%
- viability, T/C [29]: 1.53%
- viability, T/C [30]: 0.81%
- viability, T/C [31]: 0.92%
- viability, T/C [32]: 0.98%
- viability, T/C [33]: 1.25%
- viability, T/C [34]: 1.28%
- viability, T/C [35]: 2.09%

SMILES: CC1COCCN1c1cc(-c2ccnn2C)c2ccnc(-c3ccn[nH]3)c2n1 (configuration not stated) + COc1cc2c(cc1O)CCNC21CSC2c3c(OC(C)=O)c(C)c4c(c3C(COC1=O)N1C(O)C3Cc5cc(C)c(OC)c(O)c5C(C21)N3C)OCO4
- IC50 [1]: < 31.6 nM
- IC50 [2]: < 31.6 nM
- IC50 [3]: < 31.6 nM
- IC50 [4]: < 31.6 nM
- IC50 [5]: < 31.6 nM
- viability, T/C [6]: 38%
- viability, T/C [7]: 19.5%
- viability, T/C [8]: 8.68%
- viability, T/C [9]: 5.69%
- viability, T/C [10]: 4.98%
- viability, T/C [11]: 4.49%
- viability, T/C [12]: 26%
- viability, T/C [13]: 21.3%
- viability, T/C [14]: 8.87%
- viability, T/C [15]: 4.99%
- viability, T/C [16]: 5.01%
- viability, T/C [17]: 4.7%
- viability, T/C [18]: 16.9%
- viability, T/C [19]: 12%
- viability, T/C [20]: 8.21%
- viability, T/C [21]: 5.23%
- viability, T/C [22]: 5.32%
- viability, T/C [23]: 5.04%
- viability, T/C [24]: 2.61%
- viability, T/C [25]: 2.73%
- viability, T/C [26]: 2.01%
- viability, T/C [27]: 1.53%
- viability, T/C [28]: 0.5%
- viability, T/C [29]: 0.13%
- viability, T/C [30]: 1.26%
- viability, T/C [31]: 1.04%
- viability, T/C [32]: 0.77%
- viability, T/C [33]: 1%
- viability, T/C [34]: 0.35%
- viability, T/C [35]: 0.56%

— PubChem BioAssay AID1845217 (Molecular Pharmacology Branch, DTP, NCI, 2023)
